According to US20150057335A1, “NOVEL FUSION GENES IDENTIFIED IN LUNG CANCER” (National Cancer Center, priority 2013, published 2015):

Key:
[1] = molecular target: TRIM24-BRAF fusion protein (Homo sapiens, UniProt P15056); conditions: NIH3T3 cells stably expressing TRIM24-BRAF, serum-starved, treated for 2 hours; FIG. 10C
Experimental: NIH3T3 cells stably transduced with plasmids expressing EZR-ERBB4 or TRIM24-BRAF cDNA or with empty plasmids were maintained in a serum-free medium overnight, and then treated with DMSO (Sigma) or the indicated inhibitor (dissolved in DMSO) for 2 hours. Whole-cell lysates were subjected to immunoblotting.
Cells were lysed in a RIPA buffer supplemented with Complete Protease and PhosSTOP Phosphatase Inhibitor Cocktail (Roche, Mannheim, Germany). Proteins were subjected to SDS-PAGE, followed by immunoblotting onto polyvinylidene difluoride membranes. The membranes were blocked for one hour with TBS supplemented with 0.1% Tween 20 and 1.0% BSA, and then probed with primary antibodies. After washing with TBS supplemented with 0.1% Tween 20, the membranes were incubated with horseradish peroxidase-conjugated anti-mouse or anti-rabbit secondary antibodies, and then visualized with an enhanced chemiluminescence reagent (Perkin Elmer, Waltham, Mass., USA). Signal intensity was calculated using the LAS3000 imaging system (Quansys Biosciences, West Logan, Utah, USA).

[2] = tested on: HER2:HER3 signaling activated by CD74-NRG1 fusion in EFM-19 cells; test: HER2:HER3 signaling activation by CD74-NRG1 (EFM-19 reporter cells, conditioned medium, immunoblotting); format: cell-based, human; conditions: EFM-19 cells treated 30 minutes with conditioned medium from H1299 cells expressing CD74-NRG1; FIG. 10A
Experimental: To determine whether cells expressing CD74-NRG1 cDNA secreted NRG1 ligands that activate HER2:HER3 intracellular signaling, EFM-19 breast cancer cells which express both the ERRB2/HER2 and ERBB3/HER3 proteins were used as reporter cells, as previously described (Wilson T. R., et al., Cancer Cell., 2011, 20, 158-72). NCI-H1299 cells transiently transfected with CD74-NRG1-expressing plasmids or empty (control) plasmids were washed twice with PBS and serum-starved overnight by incubation in a serum-free medium. After harvesting of the medium, centrifugation was performed at 4° C. for 5 minutes to remove cell debris. […] Then, whole-cell lysates were subjected to SDS-PAGE and immunoblotting. Cells were lysed in a RIPA buffer supplemented with Complete Protease and PhosSTOP Phosphatase Inhibitor Cocktail (Roche, Mannheim, Germany). Proteins were subjected to SDS-PAGE, followed by immunoblotting onto polyvinylidene difluoride membranes. The membranes were blocked for one hour with TBS supplemented with 0.1% Tween 20 and 1.0% BSA, and then probed with primary antibodies. After washing with TBS supplemented with 0.1% Tween 20, the membranes were incubated with horseradish peroxidase-conjugated anti-mouse or anti-rabbit secondary antibodies, and then visualized with an enhanced chemiluminescence reagent (Perkin Elmer, Waltham, Mass., USA). Signal intensity was calculated using the LAS3000 imaging system (Quansys Biosciences, West Logan, Utah, USA).

EZR-ERBB4 fusion protein = test: Constitutive activation of ERBB4 kinase by EZR-ERBB4 fusion and its inhibition (NIH3T3, immunoblotting); format: cell-based, mouse; conditions: NIH3T3 cells stably expressing EZR-ERBB4, serum-starved, treated for 2 hours; FIG. 10B
Excerpt: Whole-cell lysates were subjected to immunoblotting.

Chain of TRIM24-BRAF fusion protein (P15056 with tags, fused parts or gaps): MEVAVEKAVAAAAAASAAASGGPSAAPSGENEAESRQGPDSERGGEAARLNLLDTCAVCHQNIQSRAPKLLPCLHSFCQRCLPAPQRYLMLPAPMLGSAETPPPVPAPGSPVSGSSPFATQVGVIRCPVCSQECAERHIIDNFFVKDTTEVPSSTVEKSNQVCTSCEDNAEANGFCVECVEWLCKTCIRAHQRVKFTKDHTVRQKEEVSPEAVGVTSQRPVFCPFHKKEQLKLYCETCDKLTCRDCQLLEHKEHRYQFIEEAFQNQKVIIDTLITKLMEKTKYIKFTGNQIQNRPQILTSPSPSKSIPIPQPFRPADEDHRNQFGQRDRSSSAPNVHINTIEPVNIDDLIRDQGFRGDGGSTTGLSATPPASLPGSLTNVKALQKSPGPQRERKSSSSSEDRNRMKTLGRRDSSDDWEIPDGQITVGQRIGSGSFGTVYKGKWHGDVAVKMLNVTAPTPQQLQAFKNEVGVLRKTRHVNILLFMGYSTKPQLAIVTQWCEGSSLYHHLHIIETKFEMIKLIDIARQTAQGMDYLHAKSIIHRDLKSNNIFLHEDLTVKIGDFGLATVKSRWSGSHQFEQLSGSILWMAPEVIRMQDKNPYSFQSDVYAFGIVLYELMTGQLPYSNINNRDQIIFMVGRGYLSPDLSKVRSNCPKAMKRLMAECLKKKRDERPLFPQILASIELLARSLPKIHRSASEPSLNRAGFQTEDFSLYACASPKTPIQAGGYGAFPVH

| Phosphorylation of ERBB4 (EZR-ERBB4 fusion protein) | Phosphorylation of ERK (EZR-ERBB4 fusion protein) | SMILES | ERK phosphorylation (activation) [1] | Phosphorylation of ERK [2] | Phosphorylation of HER2 (ERBB2) [2] | Phosphorylation of HER3 (ERBB3) [2] |
| --- | --- | --- | --- | --- | --- | --- |
|  |  | N#CC(=C(/N)Sc1ccccc1N)/C(C#N)=C(\N)Sc1ccccc1N [U0126] | suppressed |  |  |  |
| suppressed | suppressed | CS(=O)(=O)CCNCc1ccc(-c2ccc3ncnc(Nc4ccc(OCc5cccc(F)c5)c(Cl)c4)c3c2)o1 [lapatinib] |  | suppressed | suppressed | suppressed |
